Source: ChEMBL document CHEMBL5120872, “Synthesis and biological evaluation of novel 2-azido muramyl dipeptide as NOD2 agonistic adjuvants” (Bioorg Med Chem, 2022)
Blank lines part the entries; values can stand above or below the compound they belong to. The source made the active and inactive calls. No cut-off for these calls is given here.

Legend:
Peritoneal macrophage [1] = experiment: Immunostimulatory activity in BALB/c mouse peritoneal macrophages assessed as increase in TNF-aplha production at 20 ug incubated for 48 hrs by sandwich ELISA method; format: functional, cell-based; conditions: dose 20.0 µg
Peritoneal macrophage [2] = experiment: Cytotoxicity against BALB/c mouse peritoneal macrophages assessed as reduction in cell viability at 20 ug incubated for 48 hrs by MTT assay; format: toxicity, cell-based; conditions: dose 20 µg
[3] = target: Nucleotide-binding oligomerization domain-containing protein 2 (Homo sapiens) (UniProt Q9HC29); experiment: Agonist activity at NOD2 in HEK-Blue hNOD2 cells assessed as increase in SEAP activity at 20 ug incubated for 24 hrs by Quanti-blue assay; format: cell-based; conditions: filed as agonist, dose 20.0 µg
Nucleotide-binding oligomerization domain-containing protein 2 (Homo sapiens), sequence (Q9HC29 whole entry, the tested form may be a part): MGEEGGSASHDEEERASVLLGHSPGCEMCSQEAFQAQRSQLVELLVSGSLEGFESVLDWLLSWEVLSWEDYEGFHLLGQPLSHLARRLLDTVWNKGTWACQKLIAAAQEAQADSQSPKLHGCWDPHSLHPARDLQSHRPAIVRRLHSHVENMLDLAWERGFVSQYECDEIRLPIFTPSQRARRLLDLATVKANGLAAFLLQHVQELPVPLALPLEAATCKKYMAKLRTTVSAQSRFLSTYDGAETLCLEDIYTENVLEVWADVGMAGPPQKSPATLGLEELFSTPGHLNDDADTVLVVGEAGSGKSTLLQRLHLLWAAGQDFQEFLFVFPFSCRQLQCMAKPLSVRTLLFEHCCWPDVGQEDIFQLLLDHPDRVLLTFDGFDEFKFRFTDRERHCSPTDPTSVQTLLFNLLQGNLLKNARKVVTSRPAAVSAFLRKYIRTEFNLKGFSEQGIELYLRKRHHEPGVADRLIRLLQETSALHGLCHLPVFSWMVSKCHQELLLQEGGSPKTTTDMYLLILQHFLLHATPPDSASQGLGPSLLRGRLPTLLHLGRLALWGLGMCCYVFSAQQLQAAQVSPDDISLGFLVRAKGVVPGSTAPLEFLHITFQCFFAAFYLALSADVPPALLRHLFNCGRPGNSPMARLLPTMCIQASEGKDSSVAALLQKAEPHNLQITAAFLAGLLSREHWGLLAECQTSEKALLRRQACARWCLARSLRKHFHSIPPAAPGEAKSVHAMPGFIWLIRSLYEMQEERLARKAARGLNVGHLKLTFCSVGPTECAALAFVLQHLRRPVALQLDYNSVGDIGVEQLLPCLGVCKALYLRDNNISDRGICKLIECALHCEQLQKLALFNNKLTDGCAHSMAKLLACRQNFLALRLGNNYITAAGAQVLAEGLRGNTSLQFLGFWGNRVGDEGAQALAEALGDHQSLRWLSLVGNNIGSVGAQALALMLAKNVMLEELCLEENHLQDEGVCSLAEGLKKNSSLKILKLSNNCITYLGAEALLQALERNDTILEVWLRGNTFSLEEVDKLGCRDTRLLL

[4] = Induction of dengue virus antigen-induced immunogenicity in BALB/c mouse assessed as fold change in IgG production treated at 10 ug and booster dosed on 14th day measured after 28 days by ELISA method; format: functional; conditions: dose 10 µg; time 28 day
[5] = Induction of dengue virus antigen-induced immunogenicity in BALB/c mouse assessed as fold change in IgG production treated at 20 ug and booster dosed on 14th day measured after 28 days by ELISA method; format: functional; conditions: dose 20 µg; time 28 day
Splenocyte [6] = experiment: Induction of LPS-stimulated mouse splenocyte proliferation assessed as increase in B cell population incubated for 48 hrs by MTT assay; format: functional, cell-based; conditions: dose 10-20 µg, DDE = dose-dependent effect
Mus musculus [7] = experiment: Induction of dengue virus antigen-induced immunogenicity in BALB/c mouse assessed as increase in IL-4 level booster dosed on 14th day and measured on day 28 after 48 hrs restimulation with antigen by ELISA method; format: functional, organism-based; conditions: dose 10-30 µg, time 28.0 day, DDE = dose-dependent effect
Mus musculus [8] = experiment: Induction of dengue virus antigen-induced immunogenicity in BALB/c mouse assessed as increase in IL-1beta level treated at 10 to 20 ug and booster dosed on 14th day and measured on day 28 after 48 hrs restimulation with antigen by ELISA method; format: functional, organism-based; conditions: dose 10-20 µg, time 28.0 day
Mus musculus [9] = experiment: Induction of dengue virus antigen-induced immunogenicity in BALB/c mouse assessed as decrease in IFNgamma level booster dosed on 14th day and measured on day 28 after 48 hrs restimulation with antigen by ELISA method; format: functional, organism-based; conditions: dose 10-30 µM, time 28.0 day, DDE = dose-dependent effect
Splenocyte [10] = experiment: Induction of dengue virus antigen-induced immunogenicity in BALB/c mouse assessed as increase in CD8+ production in Splenocyte treated at 1 to 30 ug and booster dosed on 14 th day measured after 28 days by ELISA method; format: functional, organism-based; conditions: dose 1-30 µg, time 28.0 day
Mus musculus [11] = experiment: Induction of dengue virus antigen-induced immunogenicity in BALB/c mouse assessed as […] associated IgG2a production in sera treated at 10 to 30 ug and booster dosed on 14th day measured after 28 days by ELISA method; format: functional, organism-based; conditions: dose 10-30 µg, time 28.0 day
Splenocyte [12] = experiment: Induction of dengue virus antigen-induced immunogenicity in BALB/c mouse assessed as increase in CD8+ production in splenocyte treated at 20 ug and booster dosed on 14th day measured after 28 days by ELISA method; format: functional, organism-based; conditions: dose 20.0 µg, time 28.0 day
Splenocyte [13] = experiment: Induction of dengue virus antigen-induced immunogenicity in BALB/c mouse assessed as increase in CD4+ production in Splenocyte treated at 1 to 30 ug and booster dosed on 14th day measured after 28 days by ELISA method; format: functional, organism-based; conditions: dose 1-30 µg, time 28.0 day
Mus musculus [14] = experiment: Induction of dengue virus antigen-induced immunogenicity in BALB/c mouse assessed as increase in IL-2 level booster dosed on 14th day and measured on day 28 after 48 hrs restimulation with antigen by ELISA method; format: functional, organism-based; conditions: dose 10-30 µg, time 28.0 day, DDE = dose-dependent effect
Splenocyte [15] = experiment: Induction of dengue virus antigen-induced immunogenicity in BALB/c mouse assessed as increase in CD4+ production in Splenocyte treated at 20 ug and booster dosed on 14th day measured after 28 days by ELISA method; format: functional, organism-based; conditions: dose 20.0 µg, time 28.0 day
Splenocyte [16] = experiment: Induction of Con A-stimulated mouse splenocyte proliferation assessed as increase in T cell population incubated for 48 hrs by MTT assay; format: functional, cell-based; conditions: dose 10-20 µg, DDE = dose-dependent effect

- Activity [3]: Active
Compound: C[C@H](NC(=O)[C@@H](C)O[C@@H]1[C@@H](N=[N+]=[N-])[C@@H](OCc2ccccc2)O[C@@H]2CO[C@@H](c3ccccc3)O[C@@H]12)C(=O)N[C@H](CCC(=O)OCc1ccccc1)C(N)=O
- Activity (Peritoneal macrophage [1]): Active
- Activity (Peritoneal macrophage [2]): Non-Toxic

- Activity [3]: Active
Compound: C[C@H](NC(=O)[C@@H](C)O[C@H]1[C@H](O)[C@@H](CO)O[C@H](OCc2ccccc2)[C@@H]1N=[N+]=[N-])C(=O)N[C@H](CCC(=O)O)C(N)=O
- Activity (Peritoneal macrophage [1]): Active
- Activity (Peritoneal macrophage [2]): Non-Toxic

- Activity [3]: Active
Compound: CC(=O)N[C@H]1C(O)O[C@H](CO)[C@@H](O)[C@@H]1O[C@H](C)C(=O)N[C@@H](C)C(=O)N[C@H](CCC(=O)O)C(N)=O (stereo partly drawn) [MURAMYL DIPEPTIDE]
- fold change (FC) [4]: 5
- Activity (Peritoneal macrophage [1]): Active
- Activity (Peritoneal macrophage [2]): Non-Toxic
- fold change (FC) [5]: 5

- Activity [3]: Active
Compound: C[C@H](NC(=O)[C@@H](C)O[C@H]1[C@H](O)[C@@H](CO)O[C@H](OCc2ccccc2)[C@@H]1N=[N+]=[N-])C(=O)N[C@H](CCC(=O)OCc1ccccc1)C(N)=O
- Activity (Splenocyte [6]): Dde
- Activity (Mus musculus [7]): Dde
- fold change (FC) [4]: 8
- Activity (Mus musculus [8]): Active
- Activity (Mus musculus [9]): Dde
- Activity (Splenocyte [10]): Active
- Activity (Mus musculus [11]): Active
- Activity (Peritoneal macrophage [1]): Active
- Activity (Peritoneal macrophage [2]): Non-Toxic
- Activity (Splenocyte [12]): Active
- fold change (FC) [5]: 10
- Activity (Splenocyte [13]): Active
- Activity (Mus musculus [14]): Dde
- Activity (Splenocyte [15]): Active
- Activity (Splenocyte [16]): Dde

- Activity [3]: Active
Compound: CCCCCCCCOC(=O)CC[C@@H](NC(=O)[C@H](C)NC(=O)[C@@H](C)O[C@H]1[C@H](O)[C@@H](CO)O[C@H](OCc2ccccc2)[C@@H]1N=[N+]=[N-])C(N)=O
- Activity (Peritoneal macrophage [1]): Active
- Activity (Peritoneal macrophage [2]): Non-Toxic

- Activity [3]: Active
Compound: CCCCCCCCCCCCCCOC(=O)CC[C@@H](NC(=O)[C@H](C)NC(=O)[C@@H](C)O[C@H]1[C@H](O)[C@@H](CO)O[C@H](OCc2ccccc2)[C@@H]1N=[N+]=[N-])C(N)=O
- Activity (Peritoneal macrophage [1]): Active
- Activity (Peritoneal macrophage [2]): Non-Toxic
